# Reference: patent US20230348493A1, “COMPOUND FOR ADJUSTING ACTIVITY OF NMDA RECEPTOR, AND PHARMACEUTICAL COMPOSITION AND USE THEREOF” (BEIJING GREATWAY PHARMACEUTICAL TECHNOLOGY CO., LTD., priority 2020, published 2023)
# Where two headings read alike, the source gives them in different places.
# Experiments:
# [1] = In-vivo metabolism (pharmacokinetic) study in rats, oral / tail intravenous; conditions: rat, plasma; for bioavailability: male, SD, oral 10 mg/kg vs intravenous 1 mg/kg, rats; for AUC(0-t) / Cmax: male SD rats
# Protocol: The pharmacokinetic parameters such as exposure of plasma concentrations of the compounds of examples were evaluated by oral/tail intravenous injection model tests in rats in order to evaluate the in-vivo metabolic stability in rats.
# The male SD rats weighing 200±20 g and being SPF grade were used in this experiment and purchased from SPF.
# Preparation of intravenous solution: 1 mg of each tested medicine was weighed accurately, and a volume was metered to 5 mL with 0.9% sodium chloride solution to prepare 0.2 mg/mL. A dose volume was 1 mL for per 200 g of weight, and the dose was 1 mg for per 1 kg of weight based on the concentration conversion.
# Preparation of intragastric solution: 10 mg of each tested medicine was accurately weighed, and a volume was metered to 10 mL with 0.9% sodium chloride solution to prepare 1 mg/mL of the solution. A dose volume was 2 mL for per 200 g of weight, and the dose was 10 mg for per 1 kg of weight based on the concentration conversion.
# Rats were randomly divided into 8 groups, 6 rats were in each group, oral gavage administration and tail intravenous administration were performed according to the above doses. About 0.2 mL of orbital blood was collected before administration and at 2 min, 5 min, 15 min, 30 min, 1 h, 2 h, 3 h, 4 h and 6 h after administration, respectively, and centrifuged at 3000 rpm for 10 min at 4° C., and a supernatant was taken for LC/MS/MS determination. A DAS pharmacokinetics program was used to analyze the measured data and calculate the main pharmacokinetic parameters.
# NMDA receptor [2] = target: T1, NMDA receptor (Rattus norvegicus, UniProt P35439); experiment: NMDA receptor agonistic properties in rat crude synaptosomal proteins (maximum [3H]-MK-801 binding vs 1 mM glycine); format: biochemical; conditions: maximum [3H]-MK-801 binding % relative to 1 mM glycine; 50 μM glutamic acid
# T1 construct: After the rats were decapitated, the prefrontal cortex and hippocampus were rapidly separated on ice; from tissue; host or cells: SD male rat prefrontal cortex and hippocampus, crude synaptosomes
# Protocol: (§1) After the rats were decapitated, the prefrontal cortex and hippocampus were rapidly separated on ice and weighed, 10 volumes of 50 mM Tris-HCl buffer (50 mM Tris-HCl, 5 mM MgCl2·6H2O, 1 mM EDTA, 0.5% (W/V) BSA, 1 mM PMSF, 0.32 M sucrose, pH 7.4) was added, and the mixture was homogenized for five times at 1500 revolutions/min with 30 s each time. A homogenate was centrifuged for 10 min at 1000×g, and a supernatant was taken and centrifuged for 10 min at 40,000×g, the precipitates were collected, re-suspended with volumes of Tris-HCl buffer, incubated at 37° C. for 10 min, and centrifuged for 10 min at 40,000×g, finally the precipitates were re-suspended with the above buffer, aliquoted and stored at −80° C. for later use.
# (3) Detection of Influence of Tested Medicines on NMDA Receptor Agonistic Properties in Rat Crude Synaptosomal Proteins
# 100 μg of rat crude synaptosomal proteins was added to all tubes respectively. 50 μl of 5,7-dichlorokynurenic acid was added to a non-specific binding tube to achieve a final concentration of 10 μM. All tubes were preloaded with 50 μM of glutamic acid, and the materials were reacted for 15 min in advance. 20 μL of control drug at corresponding concentration was added to the test tube, and then reacted for 15 min. 1 mM glycine was added to the maximum reaction tube. A volume of 30 μl of labeled ligand [^3H]-MK-801 was successively added to all tubes to achieve a final concentration of 10 nM, and reacted for 15 min. All reaction tubes were supplemented to a volume of 500 μl with 50 mM Tris-HCl buffer (50 mM Tris-HCl, 5 mM MgCl2·6H2O, 1 mM EDTA, 0.5% (WN) BSA, 0.1% NaN3, pH 7.4). A reaction was carried out at 37° C. for 15 min. A type-49 glass fiber filter membrane was prepared and a sample was applied at the same time. The filter membrane was placed in a multi-head cell collector, and the reaction system was subjected to suction filtration under negative pressure and washed with an ice-cold 50 mM Tris-HCl buffer, 10 ml each time, for a total of 5 times. After suction drying, 1 ml of scintillation liquid was added to the filter membrane, the filter membrane was placed on the shaker for shaking for 1.5 h and then placed in the liquid scintillation counter on the next day to determine the radioactive intensity.
# In an agonistic experiment, maximum [^3H]-MK-801 binding %=((tested compounds cpm−5,7 dichlorokynurenic acid cpm)/(1 mM glycine cpm−5,7 dichlorokynurenic acid cpm))×100%.
# NMDA receptor [3] = target: T1, NMDA receptor; experiment: Inhibition of [3H]-MK-801 binding to rat crude synaptosomes (receptor ligand binding assay); conditions: affinity on NMDA; [3H]-MK-801 10 nM, rat prefrontal cortex and hippocampus crude synaptosomes; read-out: IC50
# Protocol: The affinity of the tested compounds on NMDA receptor was researched by receptor ligand binding assays.
# Ten SD male rats of SPF grade were ordered and acclimated for 7 days for future use.
# as §1
# (2) Detection of Inhibitory Function of Tested Medicines on Binding of Crude Synaptosomes in Rats to [^3H]-MK-801
# 50 μg of rat crude synaptosomal proteins was added to all tubes respectively. A volume of 50 μl of MK-801 (dizocilpine) was added to a non-specific binding tube to achieve a final concentration of 100 μM, and the materials were reacted for 15 min in advance. 20 μL of control drug at corresponding concentration was added to the test tube for reaction for 15 min. A volume of 30 μl of labeled ligand [^3H]-MK-801 was successively added to all tubes to achieve a final concentration of 10 nM. All reaction tubes were supplemented to a volume of 200 μl with 50 mM Tris-HCl buffer (50 mM Tris-HCl, 5 mM MgCl2·6H2O, 1 mM EDTA, 0.5% (WN) BSA, 0.1% NaN3, pH 7.4). A reaction was carried out at 37° C. for 10 min. A type-49 glass fiber filter membrane was prepared and a sample was applied at the same time. The filter membrane was placed in a multi-head cell collector, and a reaction system was subjected to suction filtration under negative pressure and washed with an ice-cold 50 mM Tris-HCl buffer, 10 ml each time, for a total of 5 times. After suction drying, 1 ml of scintillation liquid was added to the filter membrane, the filter membrane was placed on a shaker for shaking for 1.5 h and then placed in a liquid scintillation counter on the next day to determine the radioactive intensity.
# GraphPad5.0 software was used to analyze the data, and the percentage of competitive inhibition was calculated through nonlinear fitting, wherein:
# Percentage of competitive inhibition %=((total binding tube cpm−compound cpm)/(total binding tube cpm−non-specific binding tube cpm))×100%;
# Specific binding amount=total binding amount−non-specific binding amount, wherein each binding site was determined by double compound tubes.
# rats = experiment: Forced swimming test in rats; format: in vivo; conditions: Rattus norvegicus, Po
# Protocol: Pharmacodynamic evaluation was performed by the forced swimming tests in rats. The experimental animals were male SD rats weighing 150 g-180 g and being SPF grade, and acclimated for one week after purchase, and then subjected to forced swimming tests, the rats need be fasted for 12 hours before the tests. The compounds of examples were dissolved with normal saline, and blank control group (normal saline) and example compound administration group were established. 8-10 rats were provided for each group. On the day before the tests, the rats were placed in a glass cylinder with a height of 40 cm, an inner diameter of 18 cm, and a water depth of 23 cm for pre-swimming for 15 min, and a water temperature was 28° C. After the pre-swimming the rats were removed, wiped with a dry cloth, and dried with an electrical heater, then returned to a rearing cage, and administered. A formal forced swimming test was performed on the next day for a total of 5 min. The accumulated immobility time within 5 min was recorded, and a second forced swimming test was performed on the seventh day; the criteria for determining immobility were that the rats stopped struggling in the water, were in a floating state, and had only slight limb movements to keep the head floating on the water surface. The results are shown in Table 4, and the experimental data were statistically analyzed by GraphPad Prism 5.0 software.
# [4] = 48 h, Day 2, *P<0.05, **P<0.01 compared with the control group, read-out: Reduction percentage (%) of floating time, Day 2
# [5] = 168 h, Day 7, *P<0.05, **P<0.01 compared with the control group, read-out: Reduction percentage (%) of floating time, Day 7
SMILES,bioavailability [1] [%],"AUC(0-t) ([1]; Intravenous injection, 1 mg/kg) [µg·h/mL]","Cmax ([1]; Intravenous injection, 1 mg/kg) [µg/mL]","AUC(0-t) ([1]; Oral, 10 mg/kg) [µg·h/mL]","Cmax ([1]; Oral, 10 mg/kg) [µg/mL]",Maximum agonistic efficacy (%) (NMDA receptor [2]),IC50 (NMDA receptor [3]) [nM],inhibition in vivo at 0.1 mg/kg (rats; [4]) [%],inhibition in vivo at 0.1 mg/kg (rats; [5]) [%]
CC(=O)N1CCSC12CN(C(=O)[C@@H](N)[C@@H](C)O)C2.Cl [A-066],54.5,1.39,1.69,7.56,2.08,29,0.35,68,55.3
Cl.N[C@@H](CO)C(=O)N1CC2(C1)NCCS2 [A-007],,,,,,56,0.89,35.1,32.4
CC(C)C(=O)N1CCSC12CN(C(=O)[C@@H](N)[C@@H](C)O)C2.Cl [A-098],19.1,0.952,1.09,1.82,0.767,28,0.98,64.5,13.9
C[C@@H](O)[C@H](N)C(=O)N1CC2(C1)NCCS2.Cl [A-006],21.2,16.5,11.6,35,18.4,32,0.44,36.4,22.2
CC(=O)N1CCSC12CCN(C(=O)[C@@H](N)[C@@H](C)O)CC2.Cl [A-082],19.6,6.85,18.3,13.4,5.58,45,0.89,,
C[C@@H](O)[C@H](N)C(=O)N1CC2(C1)N[C@H](C(N)=O)CS2.Cl [A-258],27.3,4.18,3.63,11.4,4.91,21,0.33,74.8,56.4
CC(C)[C@H](N)C(=O)N1CC2(C1)NCCS2.Cl [A-008],,,,,,35,0.89,54.9,57.3
C[C@@H](O)[C@H](N)C(=O)N1CCC2(C1)NCCS2.Cl (some centres unmarked) [A-020],,,,,,42,0.25,51.8,59.3
C[C@@H](O)[C@H](N)C(=O)N1CCC2(CC1)NCCS2.Cl [A-034],,,,,,25,0.89,71.9,60.1
